“And” between values parts separate entries of the source, which are not always exact repeats. Identical values can stand only once.
Assays:
[1] = Properties of perfluorocarbon (physical characteristics of neat F44E); type: physicochemical
Text: Perfluorocarbon: Seventy liters of neat perfluorocarbon F44E (trans-bis-perfluorobutyl ethylene) were provided as a generous gift from Neuron Therapeutics, Inc (Malvern, Pa.). This perfluorocarbon is clear, colorless, odorless, immiscible with water or blood and has the physical characteristics listed in Table 1.

[2] = system: Sus scrofa pigs; assay: Peritoneal perfusion with perfluorocarbon in pigs made hypoxic by ventilation with subatmospheric oxygen; arterial blood gases; type: in vivo; conditions: for Fitted mean PaO2 / Observed mean PaO2: pigs, peritoneal perfusion; for Fitted treatment effect: mean PaO2 difference perfluorocarbon versus saline / Observed treatment effect: mean PaO2 difference perfluorocarbon versus saline: oxygenation on
Description: Animals: Fifteen Sus scrofa pigs weighing 45-55 kg were used for the experiments. All experiments were approved by the Thomas Jefferson University Institutional Animal Care and Use Committee. The care and handling of all animals were in accord with United States Department of Agriculture guidelines.
Surgical procedure: The animals were induced with Telazol (Fort Dodge Animal Health, Fort Dodge, Iowa) 5 mg/kg injected intramuscularly (IM), after which an intravenous catheter was placed in an ear vein and 30 mg of Propofol (Baxter, Irvine, Calif.) was injected intravenously (IV). The animals were then intubated with a 7.5 mm internal diameter endotracheal tube (Mallinckrodt Inc., St. Louis, Mo.) and maintained with isoflurane inhalation anesthesia, using intermittent Propofol injections for any evidence of discomfort or awakening. The animals were placed on a Harvard Apparatus Dual Phase Control Respirator Pump (South Natick, Mass.) mechanical ventilator with a tidal volume of 10-15 ml/kg and a rate of 12-15 breaths per minute. Prior to subjecting the animal to hypoxia, the respiratory rate was occasionally adjusted in an effort to maintain a neutral pH, as determined by arterial blood gas measurements. Electrocardiography leads were placed in the standard 3-lead positions on each animal, starting at the time of induction, and continuously monitored throughout the experiment. Oxygen saturation was also measured with a Vet/Ox Plus 4700 (SDI, Waukesha, Wis.) pulse oxymeter with the probe placed on the animal's tongue. Once under general anesthesia and in the supine position, a cervical cut down was performed through which a Swan-Ganz right heart catheter (Edwards Lifesciences, Irvine, Calif.) was placed via the internal jugular vein and an 18-gauge angiocatheter was placed in the common carotid artery for access to the central arterial system for blood pressure monitoring and arterial blood gas measurements. Both of these lines were transduced using a pressure monitoring kit with a TruWave pressure transducer (Edwards Lifesciences, Irvine, Calif.) and connected to a Hewlett-Packard Monitor 78834A (Palo Alto, Calif.) system for monitoring the systemic and pulmonary arterial pressures and the central venous pressure.
After placement of the arterial and venous lines, a lower midline laparotomy was performed. A 28 French venous return cannula catheter (Edwards Lifesciences, Irvine, Calif.) was placed in the left paracolic gutter and brought out through a separate site in the left lower quadrant and sutured in place using a number 1 Prolene suture (Ethicon, Sommerville, N.J.). A 42 French venous return cannula (Edwards Lifesciences, Irvine, Calif.) was placed in an identical manner on the right side, with the tip lodged above the dome of the liver. The abdomen was then closed in a single layer with a running number I Prolene. In the first two animals in each experimental group, an additional 14 French catheter (Edwards Lifesciences, Irvine, Calif.) was placed near the midline for pressure monitoring purposes and was maintained in a vertical attitude, attached to a ruler such that the height of the column of fluid could be easily monitored. Peritoneal pressure measurements in centimeters of H2O were calculated by multiplying column height by the correction factor 1.67 (specific gravity of trans-bis-perfluorobutyl ethylene).
Hypoxia circuit: A Matrx anesthesia machine (Orchard Park, N.Y.) was used for blending gasses and isoflurane inhaled anesthetic. Pure nitrogen, rather than filtered room air, was mixed with pure oxygen to achieve subatmospheric concentrations of oxygen. The animal was ventilated using a standard bifurcated anesthesia circuit to maintain unidirectional flow of gasses. A Datex machine (Puritan-Bennett Corporation, Overland Park, Kans.) was attached to the ventilation circuit and allowed real-time monitoring of the oxygen and anesthetic agent concentration. […]

With `FC(F)(F)C(F)(F)C(F)(F)C(F)(F)/C=C/C(F)(F)C(F)(F)C(F)(F)C(F)(F)F` [perfluorocarbon, trans-bis-perfluorobutyl ethylene] the “specific gravity (correction factor for peritoneal pressure)” value [1] was 1.67, the Carbon dioxide capacity ([1]; neat perfluorocarbon F44E) was 200 vol % and the Oxygen capacity ([1]; neat perfluorocarbon F44E) was 50 vol %. For the same compound, the Specific gravity ([1]; neat perfluorocarbon F44E) was 1.668 g/cc, the “Fitted mean PaO2” value ([2]; FiO2 10%, O2 Off) was 25.7 mm Hg and the “Observed mean PaO2” value ([2]; FiO2 10%, O2 Off) was 28.0 mm Hg. For the same compound, the “Fitted mean PaO2” value ([2]; FiO2 10%, O2 On) was 35.2 mm Hg, the “Observed mean PaO2” value ([2]; FiO2 10%, O2 On) was 36.7 mm Hg and the “Observed mean PaO2” value ([2]; FiO2 10%, O2 On, listed as oxygenated perfluorocarbon) was 36.7±8.4 mm Hg. The “Fitted mean PaO2” value ([2]; FiO2 12%, O2 Off) was 38.5 mm Hg, the “Observed mean PaO2” value ([2]; FiO2 12%, O2 Off) was 37.1 mm Hg and the “Fitted mean PaO2” value ([2]; FiO2 12%, O2 On) was 44.5 mm Hg. For the same compound, the “Observed mean PaO2” value ([2]; FiO2 12%, O2 On) was 43.8 mm Hg, the “Fitted mean PaO2” value ([2]; FiO2 14%, O2 Off) was 51.3 mm Hg and the “Observed mean PaO2” value ([2]; FiO2 14%, O2 Off) was 48.8 mm Hg. For the same compound, the “Fitted mean PaO2” value ([2]; FiO2 14%, O2 On) was 53.9 mm Hg, the “Observed mean PaO2” value ([2]; FiO2 14%, O2 On) was 55.3 mm Hg and the “Observed mean PaO2” value ([2]; FiO2 14%, O2 On, listed as oxygenated perfluorocarbon) was 55.3±7.6 mm Hg and 55.3 mm Hg. The “arterial oxygen saturation (SaO2)” value ([2]; FiO2 14%, oxygenated perfluorocarbon perfusion (73% with oxygenated saline)) was 89%, the “Fitted mean PaO2” value ([2]; FiO2 16%, O2 Off) was 64.2 mm Hg and the “Observed mean PaO2” value ([2]; FiO2 16%, O2 Off) was 63.7 mm Hg. For the same compound, the “Fitted mean PaO2” value ([2]; FiO2 16%, O2 On) was 63.3 mm Hg, the “Observed mean PaO2” value ([2]; FiO2 16%, O2 On) was 64.4 mm Hg and the “Fitted mean PaO2” value ([2]; FiO2 18%, O2 Off) was 77.0 mm Hg. The “Observed mean PaO2” value ([2]; FiO2 18%, O2 Off) was 79.8 mm Hg, the “Fitted mean PaO2” value ([2]; FiO2 18%, O2 On) was 72.7 mm Hg and the “Observed mean PaO2” value ([2]; FiO2 18%, O2 On) was 68.7 mm Hg. The “Observed mean PaO2” value ([2]; FiO2 18%, O2 On, listed as oxygenated perfluorocarbon) was 68.7±10.4 mm Hg, the group-by-oxygenation interaction effect ([2]; average across FiO2 values) was “about 6.4 mmHg” and the “average mean PaO2 difference perfluorocarbon versus saline” value ([2]; oxygenation off, across all FiO2 values) was 6.4 mmHg. The “Fitted treatment effect: mean PaO2 difference perfluorocarbon versus saline” value ([2]; FiO2 10%) was 9.6 mmHg, the “Observed treatment effect: mean PaO2 difference perfluorocarbon versus saline” value ([2]; FiO2 10%) was 8.1 mmHg and the “Fitted treatment effect: mean PaO2 difference perfluorocarbon versus saline” value ([2]; FiO2 12%) was 11.4 mmHg. The “Observed treatment effect: mean PaO2 difference perfluorocarbon versus saline” value ([2]; FiO2 12%) was 12.4 mmHg, the “Fitted treatment effect: mean PaO2 difference perfluorocarbon versus saline” value ([2]; FiO2 14%) was 13.2 mmHg and the “Observed treatment effect: mean PaO2 difference perfluorocarbon versus saline” value ([2]; FiO2 14%) was 15.9 mmHg. The “Fitted treatment effect: mean PaO2 difference perfluorocarbon versus saline” value ([2]; FiO2 16%) was 15.0 mmHg, the “Observed treatment effect: mean PaO2 difference perfluorocarbon versus saline” value ([2]; FiO2 16%) was 18.2 mmHg and the “Fitted treatment effect: mean PaO2 difference perfluorocarbon versus saline” value ([2]; FiO2 18%) was 16.8 mmHg. The “Observed treatment effect: mean PaO2 difference perfluorocarbon versus saline” value ([2]; FiO2 18%) was 8.2 mmHg and the “arterial or venous partial pressure of carbon dioxide (PaCO2 or PvCO2), difference between groups” value ([2]; perfluorocarbon versus saline, irrespective of FiO2) was “No statistically significant difference”.

From patent publication US20060263302A1, “Systemic oxygenation via gastric perfusion with perfluorocarbon (PFC)” (Thomas Jefferson University, priority 2005, published 2006)
